Assay results from US20130023485A1, “PARENTERAL FORMULATIONS OF PEPTIDES FOR THE TREATMENT OF SYSTEMATIC LUPUS ERYTHEMATOSUS” (Teva Pharmaceutical Industries, Ltd., priority 2003, published 2013).

Experiments:
[1] = test system: PBL of SLE patients stimulated with phytohemagglutinin (PHA); assay: Proliferation of PBL stimulated with mitogen PHA; type: cell-based, human; conditions: PHA 2 μg/ml; PBL of one SLE patient, FIG. 9
Description: To this end the peptides hCDR1 or hCDR3 were added to cultures of PBL of SLE patients that were stimulated with the mitogen phytohemagglutinin (PHA, 2 μg/ml).

[2] = Biological activity of chosen Compound 1 formulations
Description: The pH was adjusted if needed.

[3] = test system: TGF-β secretion by PBL of SLE patients; assay: Up-regulation of TGF-β secretion by PBL stimulated with human 16/6Id mAb (ELISA); type: cell-based
Description: For this purpose, supernatants were removed from cultures of PBL of various SLE patients following 48 hours incubation with the human 16/6Id mAb in the absence or presence of the peptides hCDR1 or hCDR3. TGF-β was determined by ELISA according to the manufacturer's instructions. Briefly, Maxisorb plates (Nunc) were coated with recombinant human TGFβsRII/Fc chimera (R & D Systems) diluted in PBS (100 ng/ml). After blocking, cell supernatants were added. After 18 hours incubation the detecting biotinylated anti-human TGF-β antibody (R & D Systems) was added. The substrate solution used was the TMB Colour Reagent (Helix Diagnostics) and enzyme activity was evaluated by the MRX ELISA reader using the 570 nm and 630 nm filters.

SLE subjects = assay: Phase Ib clinical study, multiple s.c. doses, tolerability and safety; type: in vivo, human; conditions: multiple s.c. doses of 0.5, 1 or 2.5 mg in 120 mg Captisol®, 12 injections in 4 weeks
Description: This study is being performed in order to evaluate the safety and tolerability of repeated Compound 1 sc administration to SLE subjects. […] Subjects are monitored on planned visits scheduled at 2, 4, 8 and 12 weeks after start of dosing. Safety and tolerability are evaluated using tests similar to those described in the Phase Ia Clinical Study above.

LN cells = assay: IFN-γ secretion by cultured LN cells of immunized and treated mice (ELISA); type: in vivo, BALB/c mice
Description: A group of 20 mice were immunized with 50 μg/mouse of Compound 1 RS. The immunized mice were allocated to five treatment groups as follows: placebo, 25, 50, 100 and 200 μg/mouse of Compound 1 DP (subcutaneous administration). Ten days post immunization and treatment, LN was extracted and single cell suspension was prepared. The in-vitro secretion of IFN-γ and TGF-β by the cultured cells in response to activation with several concentrations of Compound 1 RS was then measured. [table] [table] Mice: 20 female BALB/c mice, supplied by Harlan animals breeding center, Rehovot. Age at immunization (week+days): 10 Average weight of mice included in the experiment: 19.01 gr. The immunization was performed by injecting 100 microliters of the immunization emulsion (50 microliters into each hind footpad). […] Mice were sacrificed by cervical dislocation. LN were extracted from the hind legs and were transferred to a sterile petri dish containing about 5 mL RPMI. The cells were extracted by gentle squeezing of the tissue against a 200 micrometer mesh stainless steel net. The cells were collected and centrifuged at 300 G for 10 minutes at RT. Single cell suspensions were prepared from pooled LN of each experimental group. […] Secretion of IFN-γ and TGF-β, as indication of cellular response, were determined by ELISA of culture media (48 hrs for IFN-γ and 72 hrs for TGF-β).

[4] = test system: IL-2 secretion by PBL of SLE patients; assay: Inhibition of IL-2 secretion by PBL stimulated with human 16/6Id mAb (CTLL line); type: cell-based
Description: It was of interest to find out whether the hCDR peptides are capable of inhibiting IL-2 secretion by PBL of SLE patients following stimulation with the human 16/6Id mAb. […] To this end, PBL of SLE patients were incubated with the human 16/6Id mAb in the absence or presence of the peptides hCDR1 or hCDR3. Supernatants of the cultures were collected following 48 hours of incubation. Assays to determine levels of IL-2 in the supernatants were performed using the CTLL IL-2 dependent line. Briefly, cells of the CTLL line (2×10^4/well) were incubated in the presence of the different supernatants for 24 hours, followed by the addition of ^3H-thymidine for an additional 18-hour incubation period. Cells were then harvested and radioactivity counted using a β-counter. Results were calculated based on recombinant human IL-2 used as a standard. The ability of the peptides to inhibit the IL-2 secretion of PBL of 23 responders stimulated by the human 16/6 Id was tested. […] Inhibition of proliferative responses of PBL directly correlated with IL-2 inhibition by the CDR-based peptides.

H-GYYWSWIRQPPGKGEEWIG-OH [Compound 1]
inhibition of proliferative responses to mitogen PHA [1]: could not inhibit
biological activity ([2]; 30% (w/w) PEG 400 formulation): inactive
biological activity ([2]; formulations with acetate buffer and citrate buffer (Mannitol as tonicity agent)): active
biological activity ([2]; the two cyclodextrin formulations (Hydroxypropyl-β-cyclodextrin, Captisol)): equal to the activity of the peptide alone
Up-Regulation of TGF-β % (patients) ([3]; PBL of SLE patients, 48 hours): 100 (19/19) %
secretion of TGF-β ([3]; PBL of one representative SLE patient, FIG. 13): significant up-regulation
Maximum Up-regulation % ([3]; percent secretion above that in the presence of 16/6 Id alone (= 100%)): 305 ± 221%
safety and tolerability (SLE subjects): safe and well tolerated
Final cytokine (IFN-γ) (LN cells; treated 25 μg/M s.c., 5 million cells/well, activation Compound 1 3.125 μg/ml): BQL
Final cytokine (IFN-γ) (LN cells; treated 25 μg/M s.c., 5 million cells/well, activation Compound 1 6.25 μg/ml): BQL
Final cytokine (IFN-γ) (LN cells; treated 25 μg/M s.c., 5 million cells/well, activation Compound 1 12.5 μg/ml): 41.9 pg/mL
Final cytokine (IFN-γ) (LN cells; treated 25 μg/M s.c., 5 million cells/well, activation Compound 1 50 μg/ml): 104.2 pg/mL
Final cytokine (IFN-γ) (LN cells; treated 25 μg/M s.c., 5 million cells/well, activation Compound 1 100 μg/ml): 185.2 pg/mL
Final cytokine (IFN-γ) (LN cells; treated 25 μg/M s.c., 5 million cells/well, activation Compound 1 25 μ/ml): 70.0 pg/mL
Final cytokine (IFN-γ) (LN cells; treated 25 μg/M s.c., 5 million cells/well, activation Con A): 2995.3 pg/mL
Final cytokine (IFN-γ) (LN cells; treated 50 μg/M s.c., 2.5 million cells/well, activation Compound 1 3.125 μg/ml): 54.1 pg/mL
Final cytokine (IFN-γ) (LN cells; treated 50 μg/M s.c., 2.5 million cells/well, activation Compound 1 6.25 μg/ml): 81.8 pg/mL
Final cytokine (IFN-γ) (LN cells; treated 50 μg/M s.c., 2.5 million cells/well, activation Compound 1 12.5 μg/ml): 123.1 pg/mL
Final cytokine (IFN-γ) (LN cells; treated 50 μg/M s.c., 2.5 million cells/well, activation Compound 1 50 μg/ml): 292.5 pg/mL
Final cytokine (IFN-γ) (LN cells; treated 50 μg/M s.c., 2.5 million cells/well, activation Compound 1 100 μg/ml): 531.8 pg/mL
Final cytokine (IFN-γ) (LN cells; treated 50 μg/M s.c., 2.5 million cells/well, activation Compound 1 25 μ/ml): 215.1 pg/mL
Final cytokine (IFN-γ) (LN cells; treated 50 μg/M s.c., 2.5 million cells/well, activation Con A): 356.2 pg/mL
Final cytokine (IFN-γ) (LN cells; treated 50 μg/M s.c., 5 million cells/well, activation Compound 1 3.125 μg/ml): 76.2 pg/mL
Final cytokine (IFN-γ) (LN cells; treated 50 μg/M s.c., 5 million cells/well, activation Compound 1 6.25 μg/ml): 109.2 pg/mL
Final cytokine (IFN-γ) (LN cells; treated 50 μg/M s.c., 5 million cells/well, activation Compound 1 12.5 μg/ml): 179.5 pg/mL
Final cytokine (IFN-γ) (LN cells; treated 50 μg/M s.c., 5 million cells/well, activation Compound 1 50 μg/ml): 373.4 pg/mL
Final cytokine (IFN-γ) (LN cells; treated 50 μg/M s.c., 5 million cells/well, activation Compound 1 100 μg/ml): 547.0 pg/mL
Final cytokine (IFN-γ) (LN cells; treated 50 μg/M s.c., 5 million cells/well, activation Compound 1 25 μ/ml): 277.9 pg/mL
Final cytokine (IFN-γ) (LN cells; treated 50 μg/M s.c., 5 million cells/well, activation Con A): 4837.0 pg/mL
Final cytokine (IFN-γ) (LN cells; treated 100 μg/M s.c., 2.5 million cells/well, activation Compound 1 3.125 μg/ml): 64.5 pg/mL
Final cytokine (IFN-γ) (LN cells; treated 100 μg/M s.c., 2.5 million cells/well, activation Compound 1 6.25 μg/ml): 116.1 pg/mL
Final cytokine (IFN-γ) (LN cells; treated 100 μg/M s.c., 2.5 million cells/well, activation Compound 1 12.5 μg/ml): 180.9 pg/mL
Final cytokine (IFN-γ) (LN cells; treated 100 μg/M s.c., 2.5 million cells/well, activation Compound 1 50 μg/ml): 518.3 pg/mL
Final cytokine (IFN-γ) (LN cells; treated 100 μg/M s.c., 2.5 million cells/well, activation Compound 1 100 μg/ml): 582.7 pg/mL
Final cytokine (IFN-γ) (LN cells; treated 100 μg/M s.c., 2.5 million cells/well, activation Compound 1 25 μ/ml): 262.8 pg/mL
Final cytokine (IFN-γ) (LN cells; treated 100 μg/M s.c., 2.5 million cells/well, activation Con A): 337.4 pg/mL
Final cytokine (IFN-γ) (LN cells; treated 100 μg/M s.c., 5 million cells/well, activation Compound 1 3.125 μg/ml): 90.8 pg/mL
Final cytokine (IFN-γ) (LN cells; treated 100 μg/M s.c., 5 million cells/well, activation Compound 1 6.25 μg/ml): 157.8 pg/mL
Final cytokine (IFN-γ) (LN cells; treated 100 μg/M s.c., 5 million cells/well, activation Compound 1 12.5 μg/ml): 257.1 pg/mL
Final cytokine (IFN-γ) (LN cells; treated 100 μg/M s.c., 5 million cells/well, activation Compound 1 50 μg/ml): 739.7 pg/mL
Final cytokine (IFN-γ) (LN cells; treated 100 μg/M s.c., 5 million cells/well, activation Compound 1 100 μg/ml): 995.5 pg/mL
Final cytokine (IFN-γ) (LN cells; treated 100 μg/M s.c., 5 million cells/well, activation Compound 1 25 μ/ml): 421.7 pg/mL
Final cytokine (IFN-γ) (LN cells; treated 100 μg/M s.c., 5 million cells/well, activation Con A): 10126.8 pg/mL
Final cytokine (IFN-γ) (LN cells; treated 200 μg/M s.c., 2.5 million cells/well, activation Compound 1 3.125 μg/ml): 103.9 pg/mL
Final cytokine (IFN-γ) (LN cells; treated 200 μg/M s.c., 2.5 million cells/well, activation Compound 1 6.25 μg/ml): 126.1 pg/mL
Final cytokine (IFN-γ) (LN cells; treated 200 μg/M s.c., 2.5 million cells/well, activation Compound 1 12.5 μg/ml): 129.0 pg/mL
Final cytokine (IFN-γ) (LN cells; treated 200 μg/M s.c., 2.5 million cells/well, activation Compound 1 50 μg/ml): 378.1 pg/mL
Final cytokine (IFN-γ) (LN cells; treated 200 μg/M s.c., 2.5 million cells/well, activation Compound 1 100 μg/ml): 524.1 pg/mL
Final cytokine (IFN-γ) (LN cells; treated 200 μg/M s.c., 2.5 million cells/well, activation Compound 1 25 μ/ml): 240.3 pg/mL
Final cytokine (IFN-γ) (LN cells; treated 200 μg/M s.c., 2.5 million cells/well, activation Con A): BQL
Final cytokine (IFN-γ) (LN cells; treated 200 μg/M s.c., 5 million cells/well, activation Compound 1 3.125 μg/ml): 204.4 pg/mL
Final cytokine (IFN-γ) (LN cells; treated 200 μg/M s.c., 5 million cells/well, activation Compound 1 6.25 μg/ml): 244.1 pg/mL
Final cytokine (IFN-γ) (LN cells; treated 200 μg/M s.c., 5 million cells/well, activation Compound 1 12.5 μg/ml): 466.1 pg/mL
Final cytokine (IFN-γ) (LN cells; treated 200 μg/M s.c., 5 million cells/well, activation Compound 1 50 μg/ml): 922.5 pg/mL
Final cytokine (IFN-γ) (LN cells; treated 200 μg/M s.c., 5 million cells/well, activation Compound 1 100 μg/ml): 1006.2 pg/mL
Final cytokine (IFN-γ) (LN cells; treated 200 μg/M s.c., 5 million cells/well, activation Compound 1 25 μ/ml): 660.5 pg/mL
Final cytokine (IFN-γ) (LN cells; treated 200 μg/M s.c., 5 million cells/well, activation Con A): 7722.8 pg/mL
average inhibition of IFN-γ secretion (LN cells; treated dose of 25 μg/mouse): 95%
patients whose PBL IL-2 secretion was inhibited / tested ([4]; 23 responders): 21/23
Maximum inhibition % ([4]; IL-2 secretion with 16/6 Id alone = 100%): 84 ± 31%
Inhibitory Activity* % (patients with inhibition of 50% or more) ([4]; PBL of 23 responders): 91 (21/23) %
inhibition of IL-2 secretion ([4]; PBL of one SLE patient, FIG. 12): 100%
